Data on 15 molecules can be found in patent publication US11999727B2 (Tango Therapeutics, Inc., priority 2020, dated 2024).

Assay [1] relates to HAP1 MTAP-intact cell line. The assay is described as follows: SDMA in-cell western assay, HAP1 MTAP-intact. As to conditions: Homo sapiens, HAP1, SDMA in-cell western, HAP1 MTAP-intact; read-out: MTAP HAP1 intact IC50. The assay is classed as cell-based. The essentials: (§1)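 MTAP-null vs endogenous-MTAP HAP1 isogenic cells; in-cell western SDMA readout; IC50 per line.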
For assay [2], the target named is T1, PRMT5 (Homo sapiens, UniProt O14744).
T1 construct: purchased Viva (custom protein)
T1 sequence (O14744 whole entry): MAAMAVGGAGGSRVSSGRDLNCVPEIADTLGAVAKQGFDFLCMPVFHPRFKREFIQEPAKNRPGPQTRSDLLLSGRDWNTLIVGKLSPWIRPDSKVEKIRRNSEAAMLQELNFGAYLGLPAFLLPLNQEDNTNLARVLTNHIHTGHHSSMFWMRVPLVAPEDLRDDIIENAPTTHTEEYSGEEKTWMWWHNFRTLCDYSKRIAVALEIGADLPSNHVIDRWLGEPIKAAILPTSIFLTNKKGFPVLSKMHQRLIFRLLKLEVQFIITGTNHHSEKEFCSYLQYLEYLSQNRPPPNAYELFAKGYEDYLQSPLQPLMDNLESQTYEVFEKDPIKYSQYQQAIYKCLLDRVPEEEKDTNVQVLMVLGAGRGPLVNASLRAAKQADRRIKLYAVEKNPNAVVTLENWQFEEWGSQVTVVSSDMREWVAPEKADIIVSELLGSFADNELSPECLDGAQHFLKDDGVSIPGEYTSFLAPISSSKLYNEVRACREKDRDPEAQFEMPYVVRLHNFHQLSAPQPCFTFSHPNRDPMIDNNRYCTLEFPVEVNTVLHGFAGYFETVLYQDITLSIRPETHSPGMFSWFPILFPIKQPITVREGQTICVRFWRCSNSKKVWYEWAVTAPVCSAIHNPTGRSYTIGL
T1 sequence (Q9BQA1 whole entry partner): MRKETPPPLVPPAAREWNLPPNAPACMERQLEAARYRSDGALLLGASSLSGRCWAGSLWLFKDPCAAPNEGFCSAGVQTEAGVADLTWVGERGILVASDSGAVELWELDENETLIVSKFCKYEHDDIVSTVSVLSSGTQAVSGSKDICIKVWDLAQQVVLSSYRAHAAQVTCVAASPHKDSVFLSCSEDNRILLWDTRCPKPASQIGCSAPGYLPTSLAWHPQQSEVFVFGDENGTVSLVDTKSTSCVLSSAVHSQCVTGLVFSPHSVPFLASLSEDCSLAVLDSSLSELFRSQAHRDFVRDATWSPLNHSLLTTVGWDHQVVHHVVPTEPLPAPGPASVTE
Kind of assay: PRMT5 biochemical IC50 assay with SAM as cofactor. As to conditions: PRMT5, SAM as cofactor; read-out: SAM IC50.

Assay [3] has as its target T1, PRMT5. Kind of assay: PRMT5 biochemical IC50 assay with no cofactor. As to conditions: PRMT5, no cofactor; read-out: No Cofactor/rel IC50. The source says: Table 1 indicates IC50 values (μM) against PRMT5 for exemplary compounds in the presence of SAM as cofactor, with no cofactor, and with MTA as cofactor, respectively (columns 4-6). […] Ki values can be calculated from the IC50 values as described in the Examples section. As detailed in the Examples section, for the assay performed in the presence of SAM, IC50=Ki×1.5 (Ki=IC50/1.5).

Assay [4] concerns HAP1 MTAP-deleted cell line. The assay is described as follows: SDMA in-cell western assay, HAP1 MTAP-deleted. The assay is classed as cell-based. As to conditions: for IC50: Homo sapiens, HAP1, SDMA in-cell western, HAP1 MTAP-deleted, read-out: HAP 1 MTAP deleted IC50; for MTAP intact/deleted ratio: IC50 ratio HAP1 MTAP-intact / HAP1 MTAP-deleted, SDMA in-cell western. The essentials: as §1

Assay [5] addresses T1, PRMT5. The assay is described as follows: PRMT5 biochemical IC50 assay with MTA as cofactor. As to conditions: PRMT5, MTA as cofactor; read-out: MTA IC50.
Assay [6] has as its system HAP1 MTAP-deleted cell line. Kind of assay: Viability assay, MTAP-deleted cell line. The assay is classed as cell-based. As to conditions: Homo sapiens, HAP1, viability assay, MTAP-deleted cell line; read-out: HAP1 MTAP deleted viability. An excerpt:
Table 1 additionally indicates IC50 values in a viability assay for the MTAP-deleted cell line (column 10), indicating the effect of treatment with compound on cell survival.

As for `COc1ncc(NC(=O)C(=O)N2C[C@@H](C)CC[C@@H]2c2cnc3c(c2)CCC(=O)N3)cc1C(N)=O` (racemic) [Compound 891, rac-2-Methoxy-5-[[2-[(2S,5R)-5-methyl-2-(7-oxo-6,8-dihydro-5H-1,8-naphthyridin-3-yl)-1-piperidyl]-2-oxo-acetyl]amino]pyridine-3-carboxamide], the IC50 is more than 1000 nM in assay [1]; 50 to 500 nM at PRMT5 [2]; 50 to 500 nM at PRMT5 [3]; 100 to 1000 nM in assay [4]; 50 to 500 nM at PRMT5 [5]; more than 10000 nM in assay [6]. Besides, the MTAP intact/deleted ratio result in assay [4] is on record as “A (an IC50 ratio greater than or equal to 10 fold)”.

For the molecule `C[C@@H]1C[C@@H](F)[C@@H](c2ccc(F)cc2)N(C(=O)C(=O)Nc2cncc(C(N)=O)c2)C1` (racemic) [Compound 898, 5-[[2-[(2R,3R,5R)-3-fluoro-2-(4-fluorophenyl)-5-methyl-1-piperidyl]-2-oxo-acetyl]amino]pyridine-3-carboxamide], the IC50 in assay [1] was more than 1000 nM; at PRMT5 [2], more than 500 nM; at PRMT5 [3], 50 to 500 nM; in assay [4], 100 to 1000 nM; on PRMT5 [5], 50 to 500 nM; in assay [6] it was 1000 to 10000 nM. Besides, the MTAP intact/deleted ratio entry in assay [4] is recorded as “A (an IC50 ratio greater than or equal to 10 fold)”.

For the molecule `Cc1cc(NC(=O)C(=O)N2CC[C@H](N(C)C)C[C@H]2c2ccccc2)cnc1N` (racemic) [Compound 906], the IC50 is more than 1000 nM in assay [1]; 50 to 500 nM on PRMT5 [2]; more than 500 nM on PRMT5 [3]; more than 1000 nM in assay [4]; 50 to 500 nM on PRMT5 [5]; more than 10000 nM in assay [6]. Besides, the MTAP intact/deleted ratio entry in assay [4] is listed as “C (an IC50 ratio of less than 3 fold)”.

For the molecule `CNc1ccc([C@@H]2CC[C@@H](C)CN2C(=O)C(=O)Nc2cncc(C(N)=O)c2)nc1` (racemic) [Compound 907, 5-[[2-[(2R,5S)-5-methyl-2-[5-(methylamino)-2-pyridyl]-1-piperidyl]-2-oxo-acetyl]amino]pyridine-3-carboxamide], the IC50 in assay [1] was more than 1000 nM; at PRMT5 [2] it was 50 to 500 nM; on PRMT5 [3], 50 to 500 nM; in assay [4], less than 100 nM; on PRMT5 [5], 50 to 500 nM; in assay [6], 1000 to 10000 nM. Moreover, in assay [4], the MTAP intact/deleted ratio result is given as “A (an IC50 ratio greater than or equal to 10 fold)”.

As to `CCc1cc(NC(=O)C(=O)N2C[C@H](C)CC[C@H]2c2cccc3[nH]ncc23)cnc1N` (racemic) [Compound 911, N-(6-amino-5-ethyl-3-pyridyl)-2-[(2S,5R)-2-(1H-indazol-4-yl)-5-methyl-1-piperidyl]-2-oxo-acetamide], the IC50 in assay [1] is more than 1000 nM; on PRMT5 [2], more than 500 nM; on PRMT5 [3], more than 500 nM; in assay [4], more than 1000 nM; at PRMT5 [5], more than 500 nM; in assay [6] it was more than 10000 nM. The MTAP intact/deleted ratio result in assay [4] is recorded as “C (an IC50 ratio of less than 3 fold)”.

In the case of `Cc1cc(NC(=O)C(=O)N2C[C@H](C)CC[C@H]2c2ccc3nn(C)cc3c2)cnc1N` (racemic) [Compound 912], the IC50 in assay [1] is 100 to 1000 nM; at PRMT5 [2], 50 to 500 nM; on PRMT5 [3] it was 50 to 500 nM; in assay [4] it was less than 100 nM; at PRMT5 [5], 50 to 500 nM; in assay [6] it was less than 1000 nM. In assay [4], the MTAP intact/deleted ratio result is listed as “A (an IC50 ratio greater than or equal to 10 fold)”.

For the molecule `CCc1cc(NC(=O)C(=O)N2C[C@@H](C)CC[C@@H]2c2cnc3c(c2)CCC(=O)N3)cnc1N` (racemic) [Compound 916, rac-N-(6-Amino-5-ethyl-3-pyridyl)-2-[(2S,5R)-5-methyl-2-(7-oxo-6,8-dihydro-5H-1,8-naphthyridin-3-yl)-1-piperidyl]-2-oxo-acetamide], the IC50 was more than 1000 nM in assay [1]; more than 500 nM at PRMT5 [2]; 50 to 500 nM at PRMT5 [3]; less than 100 nM in assay [4]; 50 to 500 nM at PRMT5 [5]; 1000 to 10000 nM in assay [6]. In addition, the MTAP intact/deleted ratio result in assay [4] is “A (an IC50 ratio greater than or equal to 10 fold)”.

With `Cc1cc(NC(=O)C(=O)N2C[C@H](C)CC[C@H]2c2ccc3sc(N)nc3c2)cnc1C` (racemic) [Compound 920, 2-[(2R,5S)-2-(2-amino-1,3-benzothiazol-5-yl)-5-methyl-1-piperidyl]-N-(5,6-dimethyl-3-pyridyl)-2-oxo-acetamide], the IC50 in assay [1] was more than 1000 nM; at PRMT5 [2] it was 50 to 500 nM; at PRMT5 [3], 50 to 500 nM; in assay [4], less than 100 nM; on PRMT5 [5] it was 50 to 500 nM; in assay [6] it was 1000 to 10000 nM. For the same molecule, the MTAP intact/deleted ratio result in assay [4] is “A (an IC50 ratio greater than or equal to 10 fold)”.

`Cc1cc(NC(=O)C(=O)N2C[C@H](C)CC[C@H]2c2cnc3c(c2)CCC(=O)N3)cnc1N` (racemic) [Compound 923, rac-N-(6-Amino-5-methyl-3-pyridyl)-2-[(2S,5R)-5-methyl-2-(7-oxo-6,8-dihydro-5H-1,8-naphthyridin-3-yl)-1-piperidyl]-2-oxo-acetamide]: the IC50 in assay [1] was more than 1000 nM; at PRMT5 [2] it was 50 to 500 nM; at PRMT5 [3], 50 to 500 nM; in assay [4], 100 to 1000 nM; on PRMT5 [5], 50 to 500 nM; in assay [6], 1000 to 10000 nM. The MTAP intact/deleted ratio result in assay [4] is on record as “A (an IC50 ratio greater than or equal to 10 fold)”.

As to `COc1ncc(NC(=O)C(=O)N2C[C@H](C)CC[C@H]2c2ccc(C)cn2)cc1C(N)=O` (racemic) [Compound 932, 2-Methoxy-5-[[2-[(2R,5S)-5-methyl-2-(5-methyl-2-pyridyl)-1-piperidyl]-2-oxo-acetyl]amino]pyridine-3-carboxamide], the IC50 is more than 1000 nM in assay [1]; 50 to 500 nM on PRMT5 [2]; 50 to 500 nM on PRMT5 [3]; less than 100 nM in assay [4]; 50 to 500 nM at PRMT5 [5]; 1000 to 10000 nM in assay [6]. The MTAP intact/deleted ratio entry in assay [4] was “A (an IC50 ratio greater than or equal to 10 fold)”.

With `Cc1ccc([C@H]2CC[C@H](C)CN2C(=O)C(=O)Nc2cncc(C(N)=O)c2)nc1` (racemic) [Compound 937, 5-[[2-[(2R,5S)-5-Methyl-2-(5-methyl-2-pyridyl)-1-piperidyl]-2-oxo-acetyl]amino]pyridine-3-carboxamide], the IC50 was more than 1000 nM in assay [1]; 50 to 500 nM on PRMT5 [2]; 50 to 500 nM on PRMT5 [3]; 100 to 1000 nM in assay [4]; 50 to 500 nM at PRMT5 [5]; 1000 to 10000 nM in assay [6]. Moreover, the MTAP intact/deleted ratio result in assay [4] was “A (an IC50 ratio greater than or equal to 10 fold)”.

Take `Cc1cc(NC(=O)C(=O)N2C[C@H](C)C[C@@H](F)[C@H]2c2ccc(F)cc2)cnc1N` (racemic) [Compound 939, N-(6-amino-5-methyl-3-pyridyl)-2-[(2R,3R,5R)-3-fluoro-2-(4-fluorophenyl)-5-methyl-1-piperidyl]-2-oxo-acetamide]: the IC50 in assay [1] is more than 1000 nM; at PRMT5 [2] it was 50 to 500 nM; on PRMT5 [3] it was 50 to 500 nM; in assay [4], 100 to 1000 nM; on PRMT5 [5], 50 to 500 nM; in assay [6] it was 1000 to 10000 nM. The MTAP intact/deleted ratio result in assay [4] is reported as “A (an IC50 ratio greater than or equal to 10 fold)”.

As for `Cc1cc(NC(=O)C(=O)N2C[C@H](C)C[C@H](F)[C@@H]2c2ccc(F)cc2)cnc1N` (racemic) [Compound 940, N-(6-amino-5-methyl-3-pyridyl)-2-[(2R,3R,5S)-3-fluoro-2-(4-fluorophenyl)-5-methyl-1-piperidyl]-2-oxo-acetamide], the IC50 in assay [1] is more than 1000 nM; on PRMT5 [2], 50 to 500 nM; at PRMT5 [3], 50 to 500 nM; in assay [4], 100 to 1000 nM; on PRMT5 [5], 50 to 500 nM; in assay [6] it was 1000 to 10000 nM. Further, in assay [4], the MTAP intact/deleted ratio entry is “A (an IC50 ratio greater than or equal to 10 fold)”.

Regarding `Cc1cc(NC(=O)C(=O)N2C[C@H](C)CC[C@H]2c2ccsc2)cnc1N` (racemic) [Compound 977, rac-N-(6-Amino-5-methyl-3-pyridyl)-2-[(2R,5S)-5-methyl-2-(3-thienyl)-1-piperidyl]-2-oxo-acetamide], the IC50 is 100 to 1000 nM in assay [1]; 50 to 500 nM at PRMT5 [2]; 50 to 500 nM on PRMT5 [3]; less than 100 nM in assay [4]; 50 to 500 nM at PRMT5 [5]; 1000 to 10000 nM in assay [6]. The MTAP intact/deleted ratio result in assay [4] was “B (an IC50 ratio greater than or equal to 3 fold but lower than 10 fold)”.

On to `Cc1ccc([C@H]2CC[C@@H](C)CN2C(=O)C(=O)Nc2cnc(N)c(C)c2)nc1` (racemic) [Compound 982, N-(6-amino-5-methyl-3-pyridyl)-2-[(2R,5R)-5-methyl-2-(5-methyl-2-pyridyl)-1-piperidyl]-2-oxo-acetamide], for which the IC50 in assay [1] was more than 1000 nM; on PRMT5 [2] it was more than 500 nM; at PRMT5 [3], 50 to 500 nM; in assay [4], 100 to 1000 nM; at PRMT5 [5] it was 50 to 500 nM; in assay [6] it was more than 10000 nM. For the same molecule, the MTAP intact/deleted ratio entry in assay [4] is reported as “B (an IC50 ratio greater than or equal to 3 fold but lower than 10 fold)”.
